The record followed here is patent US5068251A, “Lipoxygenase inhibiting compounds” (Abbott Laboratories, priority 1988, dated 1991).

In one test the test system is leukotriene biosynthesis. As to the kind of experiment: Inhibition of leukotriene biosynthesis in vivo, rat peritoneal anaphylaxis model. As to conditions: 40 mg/kg i.p., 30 minutes prior to antigen challenge, peritoneal fluids collected 15 minutes after challenge, versus mean of control group. On the procedure: Inhibition of the biosynthesis of leukotrienes in vivo after intraperitoneal administration of compound was determined using a rat peritoneal anaphylaxis model. In this model rats were injected intraperitoneally (ip) with rabbit antibody to bovine serum albumin (BSA) and three hours later injected ip with BSA to induce an antgen-antibody response. Rats were sacrificed 15 minutes after this challenge and the peritoneal fluids were collected and analyzed for leukotriene levels. Test compound was injected intraperitoneal 30 minutes prior to the antigen challenge. Percent inhibition values were determined by comparing the treatment group to the mean of the control group.

The target of a further test is T1, 5-lipoxygenase (Rattus norvegicus, UniProt P12527).
T1 construct: 20,000×g supernatant from homogenized RBL-1 cells; endogenous in cells; host or cells: RBL-1 cells (20,000×g supernatant of the homogenate)
T1 sequence (P12527 1-673): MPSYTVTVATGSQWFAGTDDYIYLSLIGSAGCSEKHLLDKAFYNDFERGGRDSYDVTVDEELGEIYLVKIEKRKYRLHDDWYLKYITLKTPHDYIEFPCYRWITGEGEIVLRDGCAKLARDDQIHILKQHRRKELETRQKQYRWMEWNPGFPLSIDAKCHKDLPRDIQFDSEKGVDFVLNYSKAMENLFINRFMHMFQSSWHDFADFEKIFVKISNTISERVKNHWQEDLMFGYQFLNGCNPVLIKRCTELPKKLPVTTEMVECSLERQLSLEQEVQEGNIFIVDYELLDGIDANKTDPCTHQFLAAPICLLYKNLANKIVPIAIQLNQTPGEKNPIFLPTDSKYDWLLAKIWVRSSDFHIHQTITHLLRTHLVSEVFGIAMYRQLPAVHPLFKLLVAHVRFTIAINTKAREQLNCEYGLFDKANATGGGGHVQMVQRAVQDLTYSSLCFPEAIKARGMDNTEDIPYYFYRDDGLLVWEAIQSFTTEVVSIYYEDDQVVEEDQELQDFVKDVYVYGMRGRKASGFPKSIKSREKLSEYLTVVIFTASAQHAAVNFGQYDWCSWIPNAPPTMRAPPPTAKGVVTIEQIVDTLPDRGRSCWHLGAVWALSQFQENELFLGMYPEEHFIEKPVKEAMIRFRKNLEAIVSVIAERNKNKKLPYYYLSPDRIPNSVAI
As to the kind of experiment: Inhibition of 5-lipoxygenase activity in 20,000×g supernatant from homogenized RBL-1 cells. The following applies: linear regression of percentage inhibition versus log inhibitor concentration, read-out: IC50 (In vitro 5-lipoxygenase inhibitory potency). It counts as biochemical. On the procedure: Inhibition of 5-lipoxygenase activity was determined using the 20,000×g supernatant from homogenized RBL-1 cells in a similar manner as that described by Dyer and coworkers (Dyer, R. D.; Haviv, F.; Hanel, A. M.; Bornemier, D. A.; Carter, G. W. Fed. Proc , Fed. Am. Soc. Exp. Biol. 1984, 43, 1462A).

Each structure is given as a SMILES string.

Consider `COc1ccc2c(c1)c(CNC(=O)N(C)O)c(C)n2C(=O)c1ccc(Cl)cc1` [Example 1, N'-hydroxy-N'-methyl-N-(4'-chlorobenzoyl-5-methoxy-2-methyl-3-indolyl)methyl urea], for which the “inhibition of leukotriene biosynthesis in vivo” value in the test with leukotriene biosynthesis turned out to be 81%.

For orientation: IC50 means the concentration at which inhibition is half-maximal. `CC(C)Cc1ccc(C(C)NC(=O)NO)cc1` (stereo not drawn) [Example 3, N'-hydroxy-N-[l-(4-(2'methylpropyl)phenyl)ethyl]urea]: the IC50 at 5-lipoxygenase turned out to be 2900 nM.

`CC(C)Cc1ccc(C(C)CNC(=O)NO)cc1` (stereo not drawn) [Example 4, N'-hydroxy-N-[2-(4-(2'-methylpropyl)phenyl)]urea]: on 5-lipoxygenase, the IC50 is 1900 nM.
